From patent publication US20080260682A1, “Polyethylene glycol colonic purgative composition” (Salix Pharmaceuticals, Inc., priority 2005, published 2008) come the findings set out here.

The series relates to normal healthy subjects. As to conditions: in vivo.

Protocol: In addition, the safety and tolerability of the PEG 8000 was evaluated.
This study was a double-blinded, randomized, crossover study with 16 healthy male subjects. Subjects were randomly assigned to one of two dosing sequences: Sequence A (n=9) or Sequence B (n=6). For each dosing sequence there were three scheduled visits: a screening visit (Visit 0) and two treatment visits (Visits 1 and 2). […] At the beginning of day 4, the standardized diet ended and subjects were given a low fiber breakfast followed by clear liquids for the rest of the day. On day 5, patients received nothing by mouth (NPO) after the administration of the test materials.
A baseline period measurement period began at 6 p.m. on day 2 and lasted 48 hours. During the baseline period, all bowel movements were collected, recorded, and assessed for consistency and weight. At 6 p.m. on day 4, the test article administration began. […] In both dosing sequences, Visit I was followed by a two-week washout period before subjects crossed over to begin visit 2. During the observation period of test article administration, all bowel movements were collected, recorded, and assessed for consistency and weight. The observation period of test article administration began when the test article was administered and continued until 11 a.m. on day 5.
Subjects drank another 5 doses in the same manner beginning at 6:00 a.m. on day 5.

Regarding polyethylene glycol 8000 [PEG 8000], the “serious events, severe events, deaths” value was “no serious events, no severe events, and no deaths”.
